In US12116358B2, “Substituted indoles and methods of use thereof” (EPIZYME, INC., priority 2018, dated 2024):
Where two headings read alike, the source gives them in different places.

Legend:
SETD2(1434-1711) = target: T1, SETD2(1434-1711) (Homo sapiens, UniProt Q9BYW2); test: SETD2 (1434-1711) assay; type: biochemical; conditions: read-out: SETD2 (1434-1711)
T1 construct: SETD2 (1434-1711) Assay; catalogue N/A
T1 sequence (Q9BYW2 1434-1711): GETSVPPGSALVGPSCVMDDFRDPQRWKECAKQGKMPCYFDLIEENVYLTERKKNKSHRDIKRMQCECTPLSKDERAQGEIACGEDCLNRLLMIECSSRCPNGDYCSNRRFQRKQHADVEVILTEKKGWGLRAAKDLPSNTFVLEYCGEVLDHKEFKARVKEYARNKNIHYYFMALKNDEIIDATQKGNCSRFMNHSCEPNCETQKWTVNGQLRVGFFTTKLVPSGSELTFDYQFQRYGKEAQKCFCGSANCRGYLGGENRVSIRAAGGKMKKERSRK

H3K36me3 in A549 cells = test: In-Cell Western (ICW) assay of SETD2 inhibitors (A549 assay); type: cell-based, human; conditions: A549 cells, read-out: SETD2 A549
Summary of the method: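 H3K36me3 In-Cell Western: cells exposed to compound for 3 days at 4,000 cells/well, 37° C. DRAQ5 (1:1000) marked cell number, with 700/800-channel Licor read-out.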

IC50 (SETD2(1434-1711)) [nM] | IC50 (H3K36me3 in A549 cells; Homo sapiens) [nM] | IC50 (H3K36me3 in A549 cells) [nM] | Compound
100 | 300 |  | Cc1ccc(F)c2cc(C(=O)N[C@H]3CCC[C@@H](c4cncnc4)C3)[nH]c12 [compound 131]
50 | 300 |  | Cc1ccc(F)c2cc(C(=O)Nc3cccc(-c4nnc(CN(C)C)s4)c3)[nH]c12 [compound 132]
100 | 300 |  | COCC1CN(c2cccc(NC(=O)c3cc4c(F)ccc(C)c4[nH]3)c2)CCO1 (centres unmarked) [compound 133]
20 | 300 |  | Cc1ccc(F)c2cc(C(=O)Nc3cccc(N4CC5(CN(C)C5)C4)c3)[nH]c12 [compound 135]
400 | 300 |  | Cc1ccc(F)c2cc(C(=O)Nc3cccc(-c4ccc(CNS(C)(=O)=O)cc4)c3)[nH]c12 [compound 136]
50 | 300 |  | Cc1ccc(F)c2cc(C(=O)Nc3cccc(-c4cccnc4)c3)[nH]c12 [compound 137]
10 | 300 |  | Cc1ccc(F)c2cc(C(=O)Nc3cccc(N4CCN(C(=O)C5CCCN(C)C5)CC4)c3)[nH]c12 (centres unmarked) [compound 138]
50 | 300 |  | CNC(=O)N1CCN(c2cccc(NC(=O)c3cc4c(F)ccc(C)c4[nH]3)c2)CC1 [compound 139]
10 | 300 |  | Cc1ccc(F)c2cc(C(=O)Nc3cc(F)cc(C4CCN(C(=O)CN(C)C)C4)c3)[nH]c12 (centres unmarked) [compound 140]
40 | 300 |  | Cc1cccnc1C(Cc1cnn(CC2CC2)c1)NC(=O)c1cc2c(F)ccc(C)c2[nH]1 (centres unmarked) [compound 141]
40 | 300 |  | Cc1ccc(F)c2cc(C(=O)Nc3cccc(N4CCC5(CCCN5CC(F)F)CC4)c3)[nH]c12 [compound 142]
60 | 300 |  | Cc1ccc(F)c2cc(C(=O)Nc3cccc(N4CCOC(C5CC5)C4)c3)[nH]c12 (centres unmarked) [compound 143]
20 | 300 |  | CNC1CCN(c2cccc(NC(=O)c3cc4c(F)ccc(C)c4[nH]3)c2)CC1 [compound 144]
30 | 300 |  | Cc1ccc(F)c2cc(C(=O)Nc3cc(Cl)cc(-c4cncnc4)c3)[nH]c12 [compound 145]
200 | 300 |  | Cc1ccc(F)c2cc(C(=O)Nc3cccc(N4CCN(C5CCOC5)CC4)c3)[nH]c12 (centres unmarked) [compound 146]
30 | 300 |  | Cc1ccc(F)c2cc(C(=O)Nc3cccc(N4CCNC(=O)C4)c3)[nH]c12 [compound 147]
20 | 300 |  | Cc1ccc(F)c2cc(C(=O)Nc3cccc(N4CCC(N(C)CCO)C4)c3)[nH]c12 (centres unmarked) [compound 148]
70 | 300 |  | Cc1ccc(F)c2cc(C(=O)Nc3cccc(N4CCN(C(=O)CCO)CC4)c3)[nH]c12 [compound 149]
20 | 300 |  | Cc1ccc(F)c2cc(C(=O)Nc3cccc(N4CCC(CCCN)CC4)c3)[nH]c12 [compound 150]
10 | 300 |  | Cc1ccc(F)c2cc(C(=O)Nc3cccc(N4CCC(N5CCN(C)CC5)CC4)c3)[nH]c12 [compound 152]
50 | 300 |  | Cc1ccc(F)c2cc(C(=O)Nc3cccc(N4CCC(N5CCC(F)(F)CC5)C4)c3)[nH]c12 (centres unmarked) [compound 153]

IC50 (SETD2(1434-1711)) [nM] | IC50 (H3K36me3 in A549 cells; Homo sapiens) [nM] | IC50 (H3K36me3 in A549 cells) [nM] | Compound
30 | 300 |  | Cc1ccc(F)c2cc(C(=O)Nc3cccc(N4C[C@@H](O)[C@H](N(C)C)C4)c3)[nH]c12 [compound 154]
50 | 300 |  | COC1CN(C2CCN(c3cccc(NC(=O)c4cc5c(F)ccc(C)c5[nH]4)c3)CC2)C1 [compound 155]
30 | 300 |  | COCCN(C)C1CCN(c2cccc(NC(=O)c3cc4c(F)ccc(C)c4[nH]3)c2)C1 (centres unmarked) [compound 156]
50 | 300 |  | Cc1ccc(F)c2cc(C(=O)Nc3cccc(N4CCC(Nc5cccnc5)CC4)c3)[nH]c12 [compound 157]
80 | 300 |  | Cc1ccc(F)c2cc(C(=O)Nc3cc(F)cc(N4CCC(C)(N5CCOCC5)C4)c3)[nH]c12 (centres unmarked) [compound 159]
90 | 300 |  | Cc1ccc(F)c2cc(C(=O)Nc3cccc(C4CCN(C)C(=O)C4)c3)[nH]c12 (centres unmarked) [compound 160]
90 | 300 |  | Cc1ccc(F)c2cc(C(=O)Nc3cccc(-n4cncn4)c3)[nH]c12 [compound 162]
30 |  | 300 | CC(=O)N1C2CCC1CN(c1cccc(NC(=O)c3cc4c(F)ccc(C)c4[nH]3)c1)C2 [compound 163]
100 | 300 |  | Cc1ccc(F)c2cc(C(=O)Nc3cccc(-c4cnn(CCN5CCOCC5)c4)c3)[nH]c12 [compound 164]
10 | 300 |  | Cc1ccc(F)c2cc(C(=O)Nc3cccc(N4CC5CN(C)CC5C4)c3)[nH]c12 (centres unmarked) [compound 165]
70 | 300 |  | Cc1ccc(F)c2cc(C(=O)Nc3cccc([C@H]4CCN5C(=O)CC[C@@H]5C4)c3)[nH]c12 [compound 166]
50 | 300 |  | Cc1ccc(F)c2cc(C(=O)Nc3cccc(N4CCOC(CN(C)C)C4)c3)[nH]c12 (centres unmarked) [compound 167]
20 | 300 |  | Cc1ccc(F)c2cc(C(=O)Nc3cccc(C4CCN(C)CC4)c3)[nH]c12 [compound 168]
50 | 300 |  | Cc1ccc(F)c2cc(C(=O)Nc3cccc(N4CCN(C(=O)CC#N)CC4)c3)[nH]c12 [compound 170]
100 | 300 |  | Cc1ccc(F)c2cc(C(=O)Nc3cccc(-c4nccn4C)c3)[nH]c12 [compound 171]
20 |  | 300 | Cc1ccc(F)c2cc(C(=O)Nc3cccc(N4CCC5C(CCN5C)C4)c3)[nH]c12 (centres unmarked) [compound 172]
70 | 300 |  | COCC1(COC)CCN(c2cccc(NC(=O)c3cc4c(F)ccc(C)c4[nH]3)c2)CC1 [compound 173]
50 | 300 |  | Cc1ccc(F)c2cc(C(=O)Nc3cccc(N4CCC(N5CC(O)C5)C4)c3)[nH]c12 (centres unmarked) [compound 174]
70 | 300 |  | Cc1cccnc1C(Cc1cnn(CC2CC2)c1)NC(=O)c1cc2cccc(C)c2[nH]1 (centres unmarked) [compound 175]
100 | 300 |  | Cc1ccc(F)c2cc(C(=O)Nc3cccc(N4CCN(S(C)(=O)=O)CC4)c3)[nH]c12 [compound 176]
100 | 400 |  | Cc1ccc(F)c2cc(C(=O)Nc3cccc(C4CNC(=O)C4)c3)[nH]c12 (centres unmarked) [compound 177]

IC50 (SETD2(1434-1711)) [nM] | IC50 (H3K36me3 in A549 cells; Homo sapiens) [nM] | IC50 (H3K36me3 in A549 cells) [nM] | Compound
10 | 400 |  | Cc1ccc(F)c2cc(C(=O)Nc3cccc(N4CCC(N5CCC5)C4)c3)[nH]c12 (centres unmarked) [compound 178]
10 | 400 |  | Cc1ccc(F)c2cc(C(=O)Nc3cccc(N4CCC5(CC4)CNC5)c3)[nH]c12 [compound 179]
30 | 400 |  | Cc1ccc(F)c2cc(C(=O)Nc3cccc(N4CCC(N5CCCC5)CC4)c3)[nH]c12 [compound 180]
30 |  | 400 | Cc1ccc(F)c2cc(C(=O)Nc3cccc(N4CCN5C(=O)NCC5C4)c3)[nH]c12 (centres unmarked) [compound 181]
20 |  | 400 | Cc1ccc(F)c2cc(C(=O)Nc3cccc(N4CC5CCCN(C)C5C4)c3)[nH]c12 (centres unmarked) [compound 182]
90 | 400 |  | Cc1ccc(F)c2cc(C(=O)Nc3cc(F)cc(N4CCCN(C)C(=O)C4)c3)[nH]c12 [compound 183]
10 | 400 |  | Cc1ccc(F)c2cc(C(=O)Nc3cccc(N4CC5(CCNCC5)C4)c3)[nH]c12 [compound 184]
100 | 400 |  | CC(=O)N1CCN(c2ccc(F)c(NC(=O)c3cc4c(F)ccc(C)c4[nH]3)c2)CC1 [compound 185]
30 | 400 |  | Cc1ccc(F)c2cc(C(=O)Nc3cccc(N4CC[C@H](N(C)C)[C@H](F)C4)c3)[nH]c12 [compound 186]
20 | 400 |  | Cc1ccc(F)c2cc(C(=O)Nc3cc(Cl)cc(N4CCC(CCCN5CCOCC5)CC4)c3)[nH]c12 [compound 188]
6 | 400 |  | Cc1ccc(F)c2cc(C(=O)Nc3cccc(N4CCC5(CCNCC5)C4)c3)[nH]c12 [compound 189]
30 | 400 |  | Cc1ccc(F)c2cc(C(=O)Nc3cccc(N4CCN(C)C4=O)c3)[nH]c12 [compound 191]
30 | 400 |  | Cc1ccc(F)c2cc(C(=O)Nc3cccc(N4CCC(N)CC4)c3)[nH]c12 [compound 192]
100 | 400 |  | CC(=O)N1CCN(c2cccc(NC(=O)c3cc4c(F)ccc(C)c4[nH]3)c2)CC1CC(C)C (centres unmarked) [compound 193]
40 | 400 |  | Cc1ccc(F)c2cc(C(=O)Nc3cccc(C4(O)CCC(N(C)C)CC4)c3)[nH]c12 (centres unmarked) [compound 195]
100 | 400 |  | Cc1ccc(F)c2cc(C(=O)Nc3cccc(-c4ccno4)c3)[nH]c12 [compound 196]
100 | 400 |  | Cc1ccc(F)c2cc(C(=O)Nc3cccc(-c4cncn4C)c3)[nH]c12 [compound 197]
70 |  | 400 | COC1CCN(c2cccc(NC(=O)c3cc4c(F)ccc(C)c4[nH]3)c2)CC1 [compound 198]
50 |  | 400 | Cc1ccc(F)c2cc(C(=O)Nc3cccc(N4CCN(CC5CC5)CC4)c3)[nH]c12 [compound 199]
